From patent US10815222B2, “Compounds for use in the treatment of kinetoplastid infection” (C.N.C.C.S. S.c.a.r.l. COLLEZIONE NAZIONALE DEI COMPOSTI …, priority 2016, dated 2020)

Each compound was assayed on Bloodstream form of Trypanosoma brucei, strain Lister 427 (assay: Trypanosoma brucei growth inhibition assay (CellTiter-Glo, 24 h)). Details: Trypanosoma brucei; T. Brucei Growth Inibition Assay, class symbols; read-out: T. Brucei GI EC50.
Assay type: cell-based
Method in brief: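 Bloodstream-form T. brucei Lister 427, 1500 parasites per well in supplemented IMDM with 10% FBS, were exposed to compound (DMSO ≤0.25% final) for 24 h at 37 °C. Viability was measured by CellTiter-Glo luminescence.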

Compound | EC50
COc1ccc2nc(C(F)(F)F)n(CC(=O)N3CCN(CCc4csc(C)n4)C[C@H]3c3ncc(-c4cc5ccccc5nc4OC)[nH]3)c2c1 [(S)-2-(6-methoxy-2-(trifluoromethyl)-1H-benzo[d]imidazol-1-yl)-1-(2-(5-(2-methoxyquinolin-3-yl)-1H-imidazol-2-yl)-4-(2-(2-methylthiazol-4-yl)ethyl)piperazin-1-yl)ethan-1-one] | < 100 nM
COc1ccc2nc(C(F)(F)F)n(CC(=O)N3CCN(CCc4ccccn4)C[C@H]3c3ncc(-c4cc5ccccc5nc4OC)[nH]3)c2c1 [(S)-2-(6-methoxy-2-(trifluoromethyl)-1H-benzo[d]imidazol-1-yl)-1-(2-(5-(2-methoxyquinolin-3-yl)-1H-imidazol-2-yl)-4-(2-(pyridin-2-yl)ethyl)piperazin-1-yl)ethan-1-one] | < 100 nM
COc1ccc2nc(C(F)(F)F)n(CC(=O)N3CCN(Cc4ncnn4C)C[C@H]3c3ncc(-c4cc5ccccc5nc4OC)[nH]3)c2c1 [(S)-2-(6-methoxy-2-(trifluoromethyl)-1H-benzo[d]imidazol-1-yl)-1-(2-(5-(2-methoxyquinolin-3-yl)-1H-imidazol-2-yl)-4-((1-methyl-1H-1,2,4-triazol-5-yl)methyl)piperazin-1-yl)ethan-1-one] | 100 to 500 nM
COc1ccc2nc(C(F)(F)F)n(CC(=O)N3CCN(Cc4ccn(C)n4)C[C@H]3c3ncc(-c4cc5ccccc5nc4OC)[nH]3)c2c1 [(S)-2-(6-methoxy-2-(trifluoromethyl)-1H-benzo[d]imidazol-1-yl)-1-(2-(5-(2-methoxyquinolin-3-yl)-1H-imidazol-2-yl)-4-((1-methyl-1H-pyrazol-3-yl)methyl)piperazin-1-yl)ethan-1-one] | < 100 nM
COc1ccc2nc(C(F)(F)F)n(CC(=O)N3CCN(Cc4cocn4)C[C@H]3c3ncc(-c4cc5ccccc5nc4OC)[nH]3)c2c1 [(S)-2-(6-methoxy-2-(trifluoromethyl)-1H-benzo[d]imidazol-1-yl)-1-(2-(5-(2-methoxyquinolin-3-yl)-1H-imidazol-2-yl)-4-(oxazol-4-ylmethyl)piperazin-1-yl)ethan-1-one] | < 100 nM
COc1ccc2nc(C(F)(F)F)n(CC(=O)N3CCN(Cc4cnccn4)C[C@H]3c3ncc(-c4cc5ccccc5nc4OC)[nH]3)c2c1 [(S)-2-(6-methoxy-2-(trifluoromethyl)-1H-benzo[d]imidazol-1-yl)-1-(2-(5-(2-methoxyquinolin-3-yl)-1H-imidazol-2-yl)-4-(pyrazin-2-ylmethyl)piperazin-1-yl)ethan-1-one] | < 100 nM
COc1ccc2nc(C(F)(F)F)n(CC(=O)N3CCN(Cc4ccnnc4)C[C@H]3c3ncc(-c4cc5ccccc5nc4OC)[nH]3)c2c1 [(S)-2-(6-methoxy-2-(trifluoromethyl)-1H-benzo[d]imidazol-1-yl)-1-(2-(5-(2-methoxyquinolin-3-yl)-1H-imidazol-2-yl)-4-(pyridazin-4-ylmethyl)piperazin-1-yl)ethan-1-one] | < 100 nM
COc1ccc2nc(C(F)(F)F)n(CC(=O)N3CCN(Cc4nccs4)C[C@H]3c3ncc(-c4cc5ccccc5nc4OC)[nH]3)c2c1 [(S)-2-(6-methoxy-2-(trifluoromethyl)-1H-benzo[d]imidazol-1-yl)-1-(2-(5-(2-methoxyquinolin-3-yl)-1H-imidazol-2-yl)-4-(thiazol-2-ylmethyl)piperazin-1-yl)ethan-1-one] | < 100 nM
COc1ccc2nc(C(F)(F)F)n(CC(=O)N3CCN(Cc4cscn4)C[C@H]3c3ncc(-c4cc5ccccc5nc4OC)[nH]3)c2c1 [(S)-2-(6-methoxy-2-(trifluoromethyl)-1H-benzo[d]imidazol-1-yl)-1-(2-(5-(2-methoxyquinolin-3-yl)-1H-imidazol-2-yl)-4-(thiazol-4-ylmethyl)piperazin-1-yl)ethan-1-one] | < 100 nM
COc1ccc2nc(C(F)(F)F)n(CC(=O)N3CCN(Cc4nccs4)C[C@H]3c3nnc(-c4cc5ccccc5nc4OC)[nH]3)c2c1 [(S)-2-(6-methoxy-2-(trifluoromethyl)-1H-benzo[d]imidazol-1-yl)-1-(2-(5-(2-methoxyquinolin-3-yl)-4H-1,2,4-triazol-3-yl)-4-(thiazol-2-ylmethyl)piperazin-1-yl)ethan-1-one] | < 100 nM
